Assays:
[1] = tested on: cuff-injured femoral arteries of wild-type mice (129SVxC57BL6); test: Cuff-injured femoral artery model; assay type: in vivo; conditions: for neointima of injured blood vessel (in words) / granulation around the cuff (in words): 5 mg/kg/day
Method: Polyethylene tube cuffs were indwelled in femoral arteries of wild-type mice (129SVxC57BL6) to injure the arteries. Am80 was orally administered at a dose of 5 mg/kg/day, and after 5 weeks, appearance and cross sections of the injured sites were evaluated. Areas of neointima of the femoral artery covered with the tube cuff and granulation tissue around the cuff were measured.

[2] = tested on: angiotensin II hypercardia model mice; test: Angiotensin II hypercardia model; assay type: in vivo
Method: Mice were administered with angiotensin II at a dose of 3.2 mg/kg/day for two weeks by using an osmotic pressure pump to prepare hypercardia models. After 2 weeks, hypercardia, stromal fibrosing, and fibrosing around coronary artery were observed.

[3] = tested on: human umbilical artery endothelial cells; test: BrdU uptake (proliferation) of endothelial cells; assay type: cell-based; conditions: for ratio of uptake of BrdU relative to the uptake without Am80: Endothelial cell, 10% fetal bovine serum, BrdU added after 24 hours, measured for 4 hours
Method: (§1) Rat aorta smooth muscle cells and human umbilical artery endothelial cells were cultured in the presence of 10% fetal bovine serum, and added with Am80 at various concentrations. After 24 hours, BrdU was added to the culture medium, and BrdU uptake ability was measured for 4 hours. The ratios of uptake of BrdU at the various concentrations relative to the uptake obtained without addition of Am80 are summarized in the table. The BrdU uptake ability represents DNA synthesis ability in proportion to the proliferation.

[4] = tested on: Rat aorta smooth muscle cells; test: BrdU uptake (proliferation) of smooth muscle cells; assay type: cell-based; conditions: for ratio of uptake of BrdU relative to the uptake without Am80: Smooth muscle cell, 10% fetal bovine serum, BrdU added after 24 hours, measured for 4 hours
Method: as §1

[5] = tested on: rabbit common iliac artery; test: Restenosis after indwelling of stent in common iliac artery; assay type: in vivo; conditions: rabbits, oral 1 mg/kg every day, 4 weeks after indwelling of the stent, p<0.05 vs control group
Method: Internal diameter of a rabbit common iliac artery was measured by intravascular ultrasound imaging (IVUS), and then a balloon was expanded to a size of 1 to 1.1 times of the internal diameter and a stent was indwelled. After the indwelling, the internal diameter was measured again by IVUS to confirm that the internal diameter changed 1 to 1.1 times and the stent was precisely indwelled. For each of the control group and Am80-administrated group, 6 rabbits were used. The rabbits were orally administered with Am80 at a dose of 1 mg/kg every day, and 4 weeks after the indwelling of the stent, the arteries at the stent-indwelled sites were collected and fixed to examine tissue images. Serial sections were prepared for the proximal, intermediary, and distal positions within the stent, and areas of tunica media and intima were measured.

KLF5/BTEB2+/- mice = test: Cuff injury in KLF5/BTEB2+/- knockout mice; assay type: in vivo; conditions: in which granulation was otherwise suppressed
Description: It is known that various kinds of growth factors are induced in blood vessel walls against affections in the cardiovascular system remodeling. By using mice (KLF5/BTEB2+/−mice) with hetero-knockout of Zn finger type transcription factor KLF5/BTEB2, which is strongly expressed in neointima of injured blood vessels among such growth factors, studies were made to know whether or not the effect of proliferation of neointima was induced by the retinoid action.

Compound | neointima of injured blood vessel (in words) ([1]; mice, oral 5 mg/kg/day, after 5 weeks, compared with control mice) | neointima of injured blood vessel (in words) ([1]; mice, oral 5 mg/kg/day, after 5 weeks, compared with control mice; listed as 4-[5,6,7,8-tetrahydro-5,5,8,8-tetramethyl-2-naphthalenyl)carbamoyl]benzoic acid) | granulation around the cuff (in words) ([1]; mice, oral 5 mg/kg/day, after 5 weeks, compared with mice not administered) | granulation around the cuff (in words) ([1]; mice, oral 5 mg/kg/day, after 5 weeks, compared with mice not administered; listed as 4-[5,6,7,8-tetrahydro-5,5,8,8-tetramethyl-2-naphthalenyl)carbamoyl]benzoic acid) | Neointima area ([1]; mice, oral 5 mg/kg/day, after 5 weeks, control mice 0.0117 mm^2) | Granulation tissue area ([1]; mice, oral 5 mg/kg/day, after 5 weeks, control mice 1.08 mm^2) | onsets of hypercardia, stromal fibrosing, and fibrosing around coronary artery ([2]; angiotensin II 3.2 mg/kg/day plus 5 mg/kg/day compound for two weeks) | Heart weight/body weight ([2]; angiotensin II 3.2 mg/kg/day plus Am80 5 mg/kg/day for two weeks, control mice 5.65 ± 0.195 mg/g) | ratio of uptake of BrdU relative to the uptake without Am80 ([3]; 0.3 μM) | ratio of uptake of BrdU relative to the uptake without Am80 ([3]; 1 μM) | ratio of uptake of BrdU relative to the uptake without Am80 ([3]; 3 μM) | ratio of uptake of BrdU relative to the uptake without Am80 ([3]; 10 μM) | antiproliferative action on vascular endothelial cells (in words) ([3]; summary statement) | ratio of uptake of BrdU relative to the uptake without Am80 ([4]; 0.3 μM) | ratio of uptake of BrdU relative to the uptake without Am80 ([4]; 1 μM) | ratio of uptake of BrdU relative to the uptake without Am80 ([4]; 3 μM) | ratio of uptake of BrdU relative to the uptake without Am80 ([4]; 10 μM) | antiproliferative action on vascular smooth muscle cells (in words) ([4]; summary statement) | ratio of intima/tunica media [5] | granulation (in words) (KLF5/BTEB2+/- mice)
CC1(C)CCC(C)(C)c2cc(NC(=O)c3ccc(C(=O)O)cc3)ccc21 [Am80] | significantly decreased | superior antiproliferative action on neointima | markedly suppressed | markedly suppressed granulation | 0.0019 mm^2 | 0.44 mm^2 | markedly suppressed | 4.78 ± 0.170 mg/g | 95.1 | 109.4 | 104.0 | 102.1 | substantially no antiproliferative action | 95.5 | 78.5 | 74.4 | 68.8 | substantially had antiproliferative action | significantly decreased | –
CN1c2cc3c(cc2N=C(c2ccc(C(=O)O)cc2)c2ccccc21)C(C)(C)CCC3(C)C [LE135, 4-(5H-7,8,9,10-tetra-hydro-5,7,7,10,10-pentamethylbenzo[e]naphtho[2,3-b][1,4]-diazepin-13-yl)benzoic acid] | – | – | – | – | – | – | – | – | – | – | – | – | – | – | – | – | – | – | – | strong granulation was observed
